Patent US20210115040A1, “OGA INHIBITOR COMPOUNDS” (Janssen Pharmaceutica NV, priority 2018, published 2021)

Experiments:
[1] = target: T1, OGA (Homo sapiens, UniProt O60502); test: OGA cellular assay (ICC detection of O-GlcNAcylated proteins in HEK293 cells inducible for P301L mutant human Tau); format: cell-based; conditions: for Emax: maximum = Thiamet G 200 uM; for EC50: 6 hours incubation, read-out: Cellular hOGA, pEC50 (converted)
T1 construct: HEK293 cells inducible for P301L mutant human Tau (isoform 2N4R) were established at Janssen; endogenous in cells; host or cells: HEK293 cells inducible for P301L mutant human Tau (2N4R)
T1 sequence (O60502 1-916): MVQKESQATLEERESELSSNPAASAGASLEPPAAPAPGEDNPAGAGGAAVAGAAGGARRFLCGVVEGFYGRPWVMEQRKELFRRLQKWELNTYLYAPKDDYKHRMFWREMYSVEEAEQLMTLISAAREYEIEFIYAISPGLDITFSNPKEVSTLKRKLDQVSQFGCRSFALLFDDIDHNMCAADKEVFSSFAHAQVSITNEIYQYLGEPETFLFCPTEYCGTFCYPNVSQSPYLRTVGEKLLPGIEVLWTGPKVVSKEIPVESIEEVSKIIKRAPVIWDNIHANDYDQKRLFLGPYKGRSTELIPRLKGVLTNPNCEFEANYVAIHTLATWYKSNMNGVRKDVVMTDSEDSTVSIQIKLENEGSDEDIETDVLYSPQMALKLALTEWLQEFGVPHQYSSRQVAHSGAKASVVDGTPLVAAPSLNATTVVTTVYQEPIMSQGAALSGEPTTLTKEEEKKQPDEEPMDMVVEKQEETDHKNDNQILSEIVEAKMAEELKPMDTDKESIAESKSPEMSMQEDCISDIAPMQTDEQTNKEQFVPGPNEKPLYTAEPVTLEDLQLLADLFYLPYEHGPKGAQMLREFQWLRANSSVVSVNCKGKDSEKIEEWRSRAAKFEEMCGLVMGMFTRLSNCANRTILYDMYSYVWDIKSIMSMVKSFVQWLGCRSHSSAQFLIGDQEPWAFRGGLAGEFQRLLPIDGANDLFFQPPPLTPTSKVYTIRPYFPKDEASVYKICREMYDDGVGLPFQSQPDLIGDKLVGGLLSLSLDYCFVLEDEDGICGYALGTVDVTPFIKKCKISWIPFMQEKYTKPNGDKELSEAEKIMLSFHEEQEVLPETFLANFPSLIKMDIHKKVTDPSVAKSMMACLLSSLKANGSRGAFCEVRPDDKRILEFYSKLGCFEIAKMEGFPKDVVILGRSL
Experimental: HEK293 cells inducible for P301L mutant human Tau (isoform 2N4R) were established at Janssen. Thiamet-G was used for both plate validation (high control) and as reference compound (reference EC50 assay validation). OGA inhibition is evaluated through the immunocytochemical (ICC) detection of O-GlcNAcylated proteins by the use of a monoclonal antibody (CTD110.6; Cell Signaling, #9875) detecting 0-GlcNAcylated residues as previously described (Dorfmueller et al. 2010 Chemistry & biology, 17:1250). Inhibition of OGA will result in an increase of O-GlcNAcylated protein levels resulting in an increased signal in the experiment. Cell nuclei are stained with Hoechst to give a cell culture quality control and a rough estimate of immediate compounds toxicity, if any. ICC pictures are imaged with a Perkin Elmer Opera Phenix plate microscope and quantified with the provided software Perkin Elmer Harmony 4.1.
Cells were propagated in DMEM high Glucose (Sigma, #D5796) following standard procedures. 2 days before the cell assay cells are split, counted and seeded in Poly-D-Lysine (PDL) coated 96-wells (Greiner, #655946) plate at a cell density of 12,000 cells per cm^2 (4,000 cells per well) in 100 μl of Assay Medium (Low Glucose medium is used to reduce basal levels of GlcNAcylation) (Park et al. 2014 The Journal of biological chemistry 289:13519). At the day of compound test medium from assay plates was removed and replenished with 90 μl of fresh Assay Medium. 10 μl of compounds at a 10fold final concentration were added to the wells. Plates were centrifuged shortly before incubation in the cell incubator for 6 hours. DMSO concentration was set to 0.2%. Medium is discarded by applying vacuum. For staining of cells medium was removed and cells washed once with 100 μl D-PBS (Sigma, #D8537). From next step onwards unless other stated assay volume was always 50 μl and incubation was performed without agitation and at room temperature. Cells were fixed in 50 μl of a 4% paraformaldehyde (PFA, Alpha aesar, #043368) PBS solution for 15 minutes at room temperature. […] Before analysis samples were washed 2 times manually for 5 minutes in ICC base buffer.
Imaging is performed using Perkin Elmer Phenix Opera using a water 20× objective and recording 9 fields per well. Intensity readout at 488 nm is used as a measure of O-GlcNAcylation level of total proteins in wells. To assess potential toxicity of compounds nuclei were counted using the Hoechst staining. IC50-values are calculated using parametric non-linear regression model fitting. As a maximum inhibition Thiamet G at a 200 uM concentration is present on each plate. In addition, a concentration response of Thiamet G is calculated on each plate.

[2] = target: T2, recombinant human Meningioma Expressed Antigen 5 (MGEA5), also referred to as O-GlcNAcase (OGA) (Homo sapiens, UniProt O60502); test: OGA biochemical assay (inhibition of FM-GlcNAc hydrolysis, fluorescence); conditions: FM-GlcNAc substrate; for IC50: 6 h at room temperature, read-out: Enzymatic hOGA, pIC50 (converted); for Emax: maximal effect, read-out: Enzymatic Emax (%)
T2 construct: Full length OGA enzyme was purchased at OriGene (cat #TP322411); purchased OriGene TP322411
T2 sequence (O60502 1-916): T1 sequence (O60502 1-916)
Text: The assay is based on the inhibition of the hydrolysis of fluorescein mono-β-D-N-Acetyl-Glucosamine (FM-GlcNAc) (Mariappa et al. 2015, Biochem J 470:255) by the recombinant human Meningioma Expressed Antigen 5 (MGEA5), also referred to as O-GlcNAcase (OGA). The hydrolysis FM-GlcNAc (Marker Gene technologies, cat #M1485) results in the formation of β-D-N-glucosamineacetate and fluorescein. The fluorescence of the latter can be measured at excitation wavelength 485 nm and emission wavelength 538 nm. An increase in enzyme activity results in an increase in fluorescence signal. Full length OGA enzyme was purchased at OriGene (cat #TP322411). The enzyme was stored in 25 mM Tris.HCl, pH 7.3, 100 mM glycine, 10% glycerol at −20° C. Thiamet G and GlcNAcStatin were tested as reference compounds (Yuzwa et al. 2008 Nature Chemical Biology 4:483; Yuzwa et al. 2012 Nature Chemical Biology 8:393). The assay was performed in 200 mM Citrate/phosphate buffer supplemented with 0.005% Tween-20. 35.6 g Na2HPO4 2H2O (Sigma, #C0759) were dissolved in 1 L water to obtain a 200 mM solution. 19.2 g citric acid (Merck, #1.06580) was dissolved in 1 L water to obtain a 100 mM solution. pH of the sodiumphosphate solution was adjusted with the citric acid solution to 7.2. The buffer to stop the reaction consists of a 500 mM Carbonate buffer, pH 11.0. 734 mg FM-GlcNAc were dissolved in 5.48 mL DMSO to obtain a 250 mM solution and was stored at −20° C. OGA was used at a 2 nM concentration and FM-GlcNAc at a 100 uM final concentration. Dilutions were prepared in assay buffer.
50 nl of a compound dissolved in DMSO was dispensed on Black Proxiplate™ 384 Plus Assay plates (Perkin Elmer, #6008269) and 3 μl fl-OGA enzyme mix added subsequently. Plates were pre-incubated for 60 min at room temperature and then 2 μl FM-GlcNAc substrate mix added. […] Plates were briefly centrifuged for 1 min at 1000 rpm and incubate at room temperature for 6 h. To stop the reaction 5 μl STOP buffer were added and plates centrifuge again 1 min at 1000 rpm. Fluorescence was quantified in the Thermo Scientific Fluoroskan Ascent or the PerkinElmer EnVision with excitation wavelength 485 nm and emission wavelength 538 nm.
For analysis a best-fit curve is fitted by a minimum sum of squares method. From this an IC50 value and Hill coefficient was obtained. High control (no inhibitor) and low control (saturating concentrations of standard inhibitor) were used to define the minimum and maximum values.

[3] = HEK293, HEK293 cells inducible for P301L mutant human Tau
[4] = HEK293 cells inducible for P301L mutant human Tau

Emax [1, 3]	EC50 [1, 4]	IC50 [2]	Emax [2]	SMILES	Emax [1, 4]
11%	> 1000 nM	398 nM	99%	Cc1cc(OC[C@@H]2CCN(C(C)c3ccc4sc(C)nc4n3)C2)cc(C)n1 (mixture of isomers) [Compound 47]	
16%	> 1000 nM	794 nM	93%	Cc1cc(OC[C@H]2CCN(C(C)c3ccc4sc(C)nc4n3)C2)cc(C)n1 (mixture of isomers) [Compound 48]	
	> 1000 nM	501 nM	99%	Cc1cc(C[C@H]2CCCN(C(C)c3ccc4nc(C)sc4c3)C2)cc(C)n1 (mixture of isomers) [Compound 51]	
70%	501 nM	63.1 nM	103%	Cc1cc(C[C@H]2CCCN(Cc3ccc4sc(C)nc4n3)C2)cc(C)n1 (mixture of isomers) [Compound 52]	
67%	158 nM	10 nM	100%	COc1cc(OC[C@H]2CCCN(C(C)c3ccc4sc(C)nc4n3)C2)cc(C)n1 (mixture of isomers) [Compound 54]	
66%	63.1 nM	3.16 nM	99%	Cc1cc(CO[C@H]2CCCN(C(C)c3cc4nc(C)sc4cc3F)C2)cc(C)n1 (mixture of isomers) [Compound 99]	
-7%	> 1000 nM	> 10000 nM	30%	Cc1cc(C[C@@H]2CCN(C(C)c3ccc4oc(C(C)C)nc4n3)C2)cc(C)n1 (mixture of isomers) [Compound 31]	
60%	631 nM	53.7 nM	103%	Cc1cc(C[C@@H]2CCN(C(C)c3ccc4sc(C)nc4n3)C2)cc(C)n1 (mixture of isomers) [Compound 43]	
85%	15.8 nM	5.01 nM	101%	Cc1cc(OC[C@H]2CCCN(C(C)c3ccc4sc(C)nc4n3)C2)cc(C)n1 (mixture of isomers) [Compound 46ab]	
68%	100 nM	12.6 nM	100%	Cc1cc(OC[C@H]2CCCN(C(C)c3ccc4sc(C)nc4n3)C2)nc(C)n1 (mixture of isomers) [Compound 49ab]	

The remaining lines, values behind:

SMILES	Emax [1, 3]	EC50 [1, 4]	IC50 [2]	Emax [2]	Emax [1, 4]
Cc1cc(C[C@H]2CCCN(C(C)c3cnc4c(c3)nc(C)n4C)C2)cc(C)n1 (mixture of isomers) [Compound 11]	64%	631 nM	31.6 nM	100%	
Cc1cc(C[C@H]2CCCN(C(C)c3ccc4nc(C)[nH]c4n3)C2)cc(C)n1 (mixture of isomers) [Compound 8]	23%	> 1000 nM	100 nM	99%	
Cc1cc(C[C@H]2CCCN(C(C)c3ccc4cn(C)nc4n3)C2)cc(C)n1 (mixture of isomers) [Compound 12ab]	71%	251 nM	25.1 nM	100%	
Cc1cc(C[C@H]2CCCN(C(C)c3ccc4cn(C)nc4c3)C2)cc(C)n1 (mixture of isomers) [Compound 16]		> 1000 nM	126 nM	97%	14%
COc1cc(C2CCCN(C(C)c3ccc4oc(C)nc4n3)C2)cc(C)n1 (racemic) [Compound 18]	76%	158 nM	20 nM	100%	
Cc1cc(C2CCCN(C(C)c3ccc4oc(C)nc4n3)C2)cc(C(F)(F)F)n1 (racemic) [Compound 19]	68%	501 nM	20 nM	99%	
COc1cc(C2CCCN(C(C)c3ccc4oc(C)nc4n3)C2)cc(C(F)(F)F)n1 (racemic) [Compound 20]	60%	631 nM	20 nM	101%	
Cc1cc(C[C@H]2CCCN(C(C)c3ccc4oc(C)nc4n3)C2)cc(C)n1 (mixture of isomers) [Compound 22]	91%	12.6 nM	3.16 nM	101%	
Cc1cc(C[C@H]2CCCN(C(C)c3ccc4oc(C)nc4n3)C2)cc(C(F)(F)F)n1 (mixture of isomers) [Compound 24ab]	91%	50.1 nM	12.6 nM	103%	
Cc1cc(C[C@H]2CCCN(C(C)c3ccc4oc(C)nc4n3)C2)cc(OC(F)(F)F)n1 (mixture of isomers) [Compound 25ab]	86%	200 nM	15.8 nM	101%	
Cc1cc(C[C@H]2CCCN(C(C)c3cnc4oc(C)nc4c3)C2)cc(C)n1 (mixture of isomers) [Compound 30]	79%	200 nM	12.6 nM	102%	
